pEC50: −log10 of the molar value.
Biological target: T1, human M1 receptor (hCHRM1) (Homo sapiens, UniProt P11229)
T1 construct: expressed in transfected cells; host or cells: CHO-K1
T1 sequence (P11229 1-460): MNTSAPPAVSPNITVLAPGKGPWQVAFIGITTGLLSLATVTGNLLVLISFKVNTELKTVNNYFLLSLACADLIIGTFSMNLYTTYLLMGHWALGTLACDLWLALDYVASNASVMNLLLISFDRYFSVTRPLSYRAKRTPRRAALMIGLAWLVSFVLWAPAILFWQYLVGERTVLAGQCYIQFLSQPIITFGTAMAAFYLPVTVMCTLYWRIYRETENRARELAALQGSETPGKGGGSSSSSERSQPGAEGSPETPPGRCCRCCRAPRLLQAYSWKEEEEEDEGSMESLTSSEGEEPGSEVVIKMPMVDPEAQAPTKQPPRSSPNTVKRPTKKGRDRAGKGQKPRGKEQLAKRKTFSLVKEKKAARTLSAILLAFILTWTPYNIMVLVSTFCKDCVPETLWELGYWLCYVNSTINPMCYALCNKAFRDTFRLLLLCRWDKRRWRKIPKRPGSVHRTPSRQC
Experiment: Measurement of M1 receptor positive allosteric modulator (M1PAM) activity, calcium fluorescence (FLIPRtetra) in CHO-K1 cells in the presence of acetylcholine at EC20
Type: cell-based
Conditions: in the presence of acetylcholine at EC20 (final 0.6 nM), CHO-K1 cells expressing hCHRM1; for pEC50: inflection point of M1PAM activity, read-out: IP value; for activity (%) at 10 μM: test compound 10 μM
Summary of the method: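 PAM activity was measured as calcium flux by FLIPRtetra over 1 min after co-addition of compound and EC20 acetylcholine (final 0.6 nM) to Fluo-4-loaded hCHRM1 CHO-K1 cells. The response was scaled between DMSO (0%) and 1 μM acetylcholine (100%), and the inflection point of the concentration curve gives the IP value.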

Structure (SMILES): Cn1cc(-c2ccc(CN3Cc4cccc(Oc5ccc(C(O)C(F)(F)F)cc5F)c4C3=O)nc2)cn1 (stereo not shown) [Example 389, 7-(2-fluoro-4-(2,2,2-trifluoro-1-hydroxyethyl)phenoxy)-2-((5-(1-methyl-1H-pyrazol-4-yl)pyridin-2-yl)methyl)isoindolin-1-one]
- pEC50: 7.49
- activity (%) at 10 μM: 93%

Structure (SMILES): Cn1cc(-c2ccc(CN3Cc4cccc(Oc5ccc(C(O)C(F)(F)F)cc5F)c4C3=O)cn2)cn1 (stereo not shown) [Example 390, 7-(2-fluoro-4-(2,2,2-trifluoro-1-hydroxyethyl)phenoxy)-2-((6-(1-methyl-1H-pyrazol-4-yl)pyridin-3-yl)methyl)isoindolin-1-one]
- pEC50: 7.15
- activity (%) at 10 μM: 90%

Structure (SMILES): Cn1cc(-c2ccc(CN3Cc4ccnc(Oc5ccc(C(F)F)cc5F)c4C3=O)cc2)cn1 [Example 391, 4-(4-(difluoromethyl)-2-fluorophenoxy)-2-(4-(1-methyl-1H-pyrazol-4-yl)benzyl)-1,2-dihydro-3H-pyrrolo[3,4-c]pyridin-3-one]
- pEC50: 8.00
- activity (%) at 10 μM: 100%

Structure (SMILES): Cc1cc(-c2ccc(CN3Cc4ccnc(Oc5ccc(C(F)F)cc5F)c4C3=O)cc2)cnn1 [Example 392, 4-(4-(difluoromethyl)-2-fluorophenoxy)-2-(4-(6-methylpyridazin-4-yl)benzyl)-1,2-dihydro-3H-pyrrolo[3,4-c]pyridin-3-one]
- pEC50: 7.80
- activity (%) at 10 μM: 105%

Structure (SMILES): Cn1cc(-c2ccc(CN3Cc4ccnc(Oc5ccc(C(O)C(F)(F)F)cc5F)c4C3=O)cc2)cn1 (stereo not shown) [Example 393, 4-(2-fluoro-4-(2,2,2-trifluoro-1-hydroxyethyl)phenoxy)-2-(4-(1-methyl-1H-pyrazol-4-yl)benzyl)-1,2-dihydro-3H-pyrrolo[3,4-c]pyridin-3-one]
- pEC50: 8.30
- activity (%) at 10 μM: 89%

Structure (SMILES): CC(O)c1ccc(Oc2nccc3c2C(=O)N(Cc2ccc(-c4cnn(C)c4)cc2)C3)c(F)c1 (stereo not shown) [Example 394, 4-(2-fluoro-4-(1-hydroxyethyl)phenoxy)-2-(4-(1-methyl-1H-pyrazol-4-yl)benzyl)-1,2-dihydro-3H-pyrrolo[3,4-c]pyridin-3-one]
- pEC50: 8.15
- activity (%) at 10 μM: 109%

Structure (SMILES): Cn1ccc(-c2ccc(CN3Cc4ncnc(Oc5c(F)cccc5F)c4C3=O)cc2)n1 [Example 395, 4-(2,6-difluorophenoxy)-6-(4-(1-methyl-1H-pyrazol-3-yl)benzyl)-6,7-dihydro-5H-pyrrolo[3,4-d]pyrimidin-5-one]
- pEC50: 7.19
- activity (%) at 10 μM: 96%

Structure (SMILES): Cn1cc(-c2ccc(CN3Cc4ncnc(Oc5c(F)cccc5Cl)c4C3=O)cc2)cn1 [Example 396, 4-(2-chloro-6-fluorophenoxy)-6-(4-(1-methyl-TH-pyrazol-4-yl)benzyl)-6,7-dihydro-5H-pyrrolo[3,4-d]pyrimidin-5-one]
- pEC50: 7.48
- activity (%) at 10 μM: 95%

Structure (SMILES): Cn1cc(-c2ccc(CN3Cc4ccnc(Oc5c(F)cccc5Cl)c4C3=O)cc2)cn1 [Example 397, 4-(2-chloro-6-fluorophenoxy)-2-(4-(1-methyl-1H-pyrazol-4-yl)benzyl)-1,2-dihydro-3H-pyrrolo[3,4-c]pyridin-3-one]
- pEC50: 7.60
- activity (%) at 10 μM: 95%

Structure (SMILES): Cc1cc(-c2ccc(CN3Cc4cccc(Oc5c(F)cc(C#N)cc5F)c4C3=O)cc2)cnn1 [Example 398, 3,5-difluoro-4-((2-(4-(6-methylpyridazin-4-yl)benzyl)-3-oxo-2,3-dihydro-1H-isoindol-4-yl)oxy)benzonitrile]
- pEC50: 7.70
- activity (%) at 10 μM: 99%

Structure (SMILES): Cc1nn(C)cc1-c1ccc(CN2Cc3ccnc(OC4CCC4)c3C2=O)cc1 [Example 403, 4-(cyclobutyloxy)-2-(4-(1,3-dimethyl-1H-pyrazol-4-yl)benzyl)-1,2-dihydro-3H-pyrrolo[3,4-c]pyridin-3-one]
- pEC50: 7.24
- activity (%) at 10 μM: 102%

Structure (SMILES): CCn1cc(-c2ccc(CN3Cc4ccnc(OC5CCC5)c4C3=O)cc2)cn1 [Example 404, 4-(cyclobutyloxy)-2-(4-(1-ethyl-1H-pyrazol-4-yl)benzyl)-1,2-dihydro-3H-pyrrolo[3,4-c]pyridin-3-one]
- pEC50: 7.28
- activity (%) at 10 μM: 87%

Structure (SMILES): Cn1cc(-c2ccc(CN3Cc4ccnc(Oc5ccc(CC#N)cc5F)c4C3=O)cc2)cn1 [Example 405, (3-fluoro-4-((2-(4-(1-methyl-1H-pyrazol-4-yl)benzyl)-3-oxo-2,3-dihydro-1H-pyrrolo[3,4-c]pyridin-4-yl)oxy)phenyl)acetonitrile]
- pEC50: 8.74
- activity (%) at 10 μM: 95%

Structure (SMILES): Cn1cc(-c2ccc(CN3Cc4ccnc(Oc5cc(CC#N)ccc5F)c4C3=O)cc2)cn1 [Example 406, (4-fluoro-3-((2-(4-(1-methyl-1H-pyrazol-4-yl)benzyl)-3-oxo-2,3-dihydro-1H-pyrrolo[3,4-c]pyridin-4-yl)oxy)phenyl)acetonitrile]
- pEC50: 7.40
- activity (%) at 10 μM: 97%

Structure (SMILES): Cc1cc(-c2ccc(CN3Cc4ccnc(Oc5ccc(C(F)(F)F)cc5C)c4C3=O)cc2)cnn1 [Example 407, 2-(4-(6-methylpyridazin-4-yl)benzyl)-4-(2-methyl-4-(trifluoromethyl)phenoxy)-1,2-dihydro-3H-pyrrolo[3,4-c]pyridin-3-one]
- pEC50: 7.13
- activity (%) at 10 μM: 89%

Structure (SMILES): Cn1cc(-c2ccc(CN3Cc4ccnc(Oc5ccc(C(C)(C)O)cc5F)c4C3=O)cc2)cn1 [Example 408, 4-(2-fluoro-4-(2-hydroxypropan-2-yl)phenoxy)-2-(4-(1-methyl-1H-pyrazol-4-yl)benzyl)-1,2-dihydro-3H-pyrrolo[3,4-c]pyridin-3-one]
- pEC50: 8.25
- activity (%) at 10 μM: 99%

Structure (SMILES): Cn1cc(-c2ccc(CN3Cc4ccnc(Oc5ccc(C(C)(C)C#N)cc5F)c4C3=O)cc2)cn1 [Example 409, 2-(3-fluoro-4-((2-(4-(1-methyl-1H-pyrazol-4-yl)benzyl)-3-oxo-2,3-dihydro-1H-pyrrolo[3,4-c]pyridin-4-yl)oxy)phenyl)-2-methylpropanenitrile]
- pEC50: 8.47
- activity (%) at 10 μM: 96%

Structure (SMILES): Cc1cc(-c2ccc(CN3Cc4ccnc(Oc5ccc(C(C)(C)F)cc5F)c4C3=O)cc2)cnn1 [Example 410, 4-(2-fluoro-4-(2-fluoropropan-2-yl)phenoxy)-2-(4-(6-methylpyridazin-4-yl)benzyl)-1,2-dihydro-3H-pyrrolo[3,4-c]pyridin-3-one]
- pEC50: 7.72
- activity (%) at 10 μM: 99%

Structure (SMILES): C=C(C)c1ccc(Oc2nccc3c2C(=O)N(Cc2ccc(-c4cnnc(C)c4)cc2)C3)c(F)c1 [Example 411, 4-(2-fluoro-4-(prop-1-en-2-yl)phenoxy)-2-(4-(6-methylpyridazin-4-yl)benzyl)-1,2-dihydro-3H-pyrrolo[3,4-c]pyridin-3-one]
- pEC50: 7.21
- activity (%) at 10 μM: 102%

Structure (SMILES): Cc1nn(C)cc1-c1ccc(CN2Cc3ccnc(Oc4ccc(C(C)(C)O)cc4F)c3C2=O)cc1 [Example 412, 2-(4-(1,3-dimethyl-1H-pyrazol-4-yl)benzyl)-4-(2-fluoro-4-(2-hydroxypropan-2-yl)phenoxy)-1,2-dihydro-3H-pyrrolo[3,4-c]pyridin-3-one]
- pEC50: 8.10
- activity (%) at 10 μM: 101%

Structure (SMILES): Cn1ccc(-c2ccc(CN3Cc4ccnc(Oc5ccc(C(C)(C)O)cc5F)c4C3=O)cc2)n1 [Example 413, 4-(2-fluoro-4-(2-hydroxypropan-2-yl)phenoxy)-2-(4-(1-methyl-1H-pyrazol-3-yl)benzyl)-1,2-dihydro-3H-pyrrolo[3,4-c]pyridin-3-one]
- pEC50: 8.00
- activity (%) at 10 μM: 104%

Structure (SMILES): Cc1cc(C)c(Oc2nccc3c2C(=O)N(Cc2ccc(-c4ccn(C)n4)cc2)C3)c(F)c1 [Example 414, 4-(2-fluoro-4,6-dimethylphenoxy)-2-(4-(1-methyl-1H-pyrazol-3-yl)benzyl)-1,2-dihydro-3H-pyrrolo[3,4-c]pyridin-3-one]
- pEC50: 7.16
- activity (%) at 10 μM: 103%

Structure (SMILES): Cc1cc(C)c(Oc2nccc3c2C(=O)N(Cc2ccc(-c4cnn(C)c4)cc2)C3)c(F)c1 [Example 415, 4-(2-fluoro-4,6-dimethylphenoxy)-2-(4-(1-methyl-1H-pyrazol-4-yl)benzyl)-1,2-dihydro-3H-pyrrolo[3,4-c]pyridin-3-one]
- pEC50: 7.80
- activity (%) at 10 μM: 106%

Structure (SMILES): Cn1ccc(-c2ccc(CN3Cc4ccnc(Oc5ccc(C(F)(F)F)cc5C#N)c4C3=O)cc2)n1 [Example 416, 2-((2-(4-(1-methyl-1H-pyrazol-3-yl)benzyl)-3-oxo-2,3-dihydro-1H-pyrrolo[3,4-c]pyridin-4-yl)oxy)-5-(trifluoromethyl)benzonitrile]
- pEC50: 7.89
- activity (%) at 10 μM: 98%

Structure (SMILES): Cc1cc(C#N)cc(F)c1Oc1nccc2c1C(=O)N(Cc1ccc(-c3ccn(C)n3)cc1)C2 [Example 417, 3-fluoro-5-methyl-4-((2-(4-(1-methyl-1H-pyrazol-3-yl)benzyl)-3-oxo-2,3-dihydro-1H-pyrrolo[3,4-c]pyridin-4-yl)oxy)benzonitrile]
- pEC50: 7.80
- activity (%) at 10 μM: 96%

Structure (SMILES): Cc1cn(-c2ccc(CN3Cc4ccnc(Oc5ccc(C(F)(F)F)cc5F)c4C3=O)cc2)cn1 [Example 418, 4-(2-fluoro-4-(trifluoromethyl)phenoxy)-2-(4-(4-methyl-1H-imidazol-1-yl)benzyl)-1,2-dihydro-3H-pyrrolo[3,4-c]pyridin-3-one]
- pEC50: 8.04
- activity (%) at 10 μM: 95%

From US9777005B2 (Takeda Pharmaceutical Company Limited, priority 2012, dated 2017)
